Assay results reported in patent publication US11613531B2, “Inhibitors of RHO associated coiled-coil containing protein kinase” (Kadmon Corporation, LLC, priority 2017, dated 2023).

target: Recombinant ROCK2 (amino acids 1-552) (Homo sapiens (Human), UniProt O75116); experiment: Z′-Lyte kinase assay, ROCK2; assay type: biochemical; conditions: 1 μM compound; read-out: ROCK2 % inh. @ [conc]
Experimental: Determination of Compound's ROCK Inhibitory Activity In Vitro (Z'Lyte Assay).
Recombinant ROCK1 (amino acids 1-535) and ROCK2 (amino acids 1-552) proteins were purchased from ThermoFisher Scientific. Compound's activities were measured by Z′-lyte kinase kit (ThermoFisher Scientific) and IC50 was calculated
In vitro activities for the compounds were measured with Z′-lyte kinase kit (ThermoFisher Scientific). The percent inhibition rate was calculated by normalizing the kinase activity value obtained with 1 μM compound treatment against DMSO control value and then applied to the formula, [1-(compound/DMSO)]×100%. IC50s were calculated using the nonlinear regression curve fit function of the GraphPad Prism software with kinase activities data measured with 9 points 2-fold serial dilution of compounds treatment. In cell pMLC IC50s were calculated with data obtained from A7R5 cell experiments. A7R5 cells were treated with 9 points 2-fold serial dilution of compounds and ppMlc (T18/S19) levels were determined to calculate cellular IC50 values of the compounds using the nonlinear regression curve fit function of the GraphPad Prism software. NIH3T3 cells stably expressing ACTA2-promoter-driven-luciferase were applied to measure ROCK compounds functional IC50s in cells. Cells were plated in 96 well plates to confluence and treated with 9 points serial dilution of compounds in combination with TGFβ1 for 24 hr. Luciferase activities were measured and compound's IC50s were calculated using the nonlinear regression curve fit function of the GraphPad Prism software.

Chain of Recombinant ROCK2 (amino acids 1-552) (O75116 1-552): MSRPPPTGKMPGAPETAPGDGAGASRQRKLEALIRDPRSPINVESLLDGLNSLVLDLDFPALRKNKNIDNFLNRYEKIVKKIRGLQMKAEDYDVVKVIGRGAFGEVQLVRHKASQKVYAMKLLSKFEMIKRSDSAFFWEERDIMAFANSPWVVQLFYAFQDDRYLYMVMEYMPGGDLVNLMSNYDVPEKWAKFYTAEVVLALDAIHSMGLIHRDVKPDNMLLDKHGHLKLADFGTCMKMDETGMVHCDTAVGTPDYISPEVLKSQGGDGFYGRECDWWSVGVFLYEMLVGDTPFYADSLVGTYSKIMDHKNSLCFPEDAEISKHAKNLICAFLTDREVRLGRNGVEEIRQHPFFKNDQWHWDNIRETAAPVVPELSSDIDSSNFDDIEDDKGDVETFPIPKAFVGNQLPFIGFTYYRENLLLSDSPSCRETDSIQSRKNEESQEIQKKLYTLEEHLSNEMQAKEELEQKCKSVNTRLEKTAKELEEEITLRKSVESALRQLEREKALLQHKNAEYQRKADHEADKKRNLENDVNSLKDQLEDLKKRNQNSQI

SMILES	inhibition at 1 µM
COc1cnc(N2CCNC(C(C)C)CC2)nc1Nc1ccc2[nH]ncc2c1 (stereo not drawn) [Example 47, N-(2-(5-isopropyl-1,4-diazepan-1-yl)-5-methoxypyrimidin-4-yl)-1H-indazol-5-amine]	33.1%
CCC1CN(c2ncc(OC)c(Nc3ccc4[nH]ncc4c3)n2)CCN1 (stereo not drawn) [Example 49, N-(2-(3-ethylpiperazin-1-yl)-5-methoxypyrimidin-4-yl)-1H-indazol-5-amine]	50.6%
COc1cnc(N2CCNC(C(C)C)C2)nc1Nc1ccc2[nH]ncc2c1 (stereo not drawn) [Example 51, N-(2-(3-isopropylpiperazin-1-yl)-5-methoxypyrimidin-4-yl)-1H-indazol-5-amine]	29.3%
COc1cnc(N2CCNC(C)CC2)nc1Nc1ccc2[nH]ncc2c1 (stereo not drawn) [Example 53, N-(5-methoxy-2-(5-methyl-1,4-diazepan-1-yl)pyrimidin-4-yl)-1H-indazol-5-amine]	74.5%
CCC1CCN(c2ncc(OC)c(Nc3ccc4[nH]ncc4c3)n2)CCN1 (stereo not drawn) [Example 54, N-(2-(5-ethyl-1,4-diazepan-1-yl)-5-methoxypyrimidin-4-yl)-1H-indazol-5-amine]	58.5%
COc1cnc(N2CCCNC(C)C2)nc1Nc1ccc2[nH]ncc2c1 (stereo not drawn) [Example 55, N-(5-methoxy-2-(3-methyl-1,4-diazepan-1-yl)pyrimidin-4-yl)-1H-indazol-5-amine]	83.3%
COc1cnc(N2CCNCC(C)C2)nc1Nc1ccc2[nH]ncc2c1 (stereo not drawn) [Example 56, N-(5-methoxy-2-(6-methyl-1,4-diazepan-1-yl)pyrimidin-4-yl)-1H-indazol-5-amine]	87.1%
c1cc(Nc2ccc3[nH]ncc3c2)nc(N2CCNC3(CC3)C2)n1 [Example 66, N-(2-(4,7-diazaspiro[2.5]octan-7-yl)pyrimidin-4-yl)-1H-indazol-5-amine]	86.3%
c1cc(Nc2ccc3[nH]ncc3c2)nc(N2CC3CCC2CN3)n1 (stereo not drawn) [Example 67, N-(2-(2,5-diazabicyclo[2.2.2]octan-2-yl)pyrimidin-4-yl)-1H-indazol-5-amine]	99.2%
c1cc(Nc2ccc3[nH]ncc3c2)nc(N2CC3CNC(C3)C2)n1 (stereo not drawn) [Example 78, N-(2-(3,6-diazabicyclo[3.2.1]octan-3-yl)pyrimidin-4-yl)-1H-indazol-5-amine]	99.1%
c1cc(Nc2ccc3[nH]ncc3c2)nc(N2CCN3CCNCC3C2)n1 (stereo not drawn) [Example 84, N-(2-(octahydro-2H-pyrazino[1,2-a]pyrazin-2-yl)pyrimidin-4-yl)-1H-indazol-5-amine]	22.2%
c1cc(Nc2ccc3[nH]ncc3c2)nc(N2CCC3CNCC3CC2)n1 (stereo not drawn) [Example 85, N-(2-(octahydropyrrolo[3,4-d]azepin-6(1H)-yl)pyrimidin-4-yl)-1H-indazol-5-amine]	98%
c1ccc2c(c1)N(c1nccc(Nc3ccc4[nH]ncc4c3)n1)CC21CCNCC1 [Example 87, N-(2-(spiro[indoline-3,4′-piperidin]-1-yl)pyrimidin-4-yl)-1H-indazol-5-amine]	7.6%
c1ccc2c(c1)C(C1CCNCC1)CN2c1nccc(Nc2ccc3[nH]ncc3c2)n1 (stereo not drawn) [Example 88, N-(2-(3-(piperidin-4-yl)indolin-1-yl)pyrimidin-4-yl)-1H-indazol-5-amine]	13.8%

same assay, conditions: 9 points 2-fold serial dilution

SMILES	IC50
c1cc(Nc2ccc(-c3cnn[nH]3)cc2)nc(N2CCNCC2)n1 [Example 41, N-(4-(1H-1,2,3-triazol-5-yl)phenyl)-2-(piperazin-1-yl)pyrimidin-4-amine]	> 10000 nM
c1cc(Nc2ccc3[nH]ncc3c2)nc(N2CCNC3(CC3)C2)n1 [Example 66, N-(2-(4,7-diazaspiro[2.5]octan-7-yl)pyrimidin-4-yl)-1H-indazol-5-amine]	380 nM
c1cc(Nc2ccc3[nH]ncc3c2)nc(N2CC3CCC2CN3)n1 (stereo not drawn) [Example 67, N-(2-(2,5-diazabicyclo[2.2.2]octan-2-yl)pyrimidin-4-yl)-1H-indazol-5-amine]	45 nM
CC1CN(c2nccc(Nc3ccc4[nH]ncc4c3)n2)C(C)CN1 (stereo not drawn) [Example 68, N-(2-(2,5-dimethylpiperazin-1-yl)pyrimidin-4-yl)-1H-indazol-5-amine]	294 nM

tested on: ppMlc (T18/S19) levels in A7R5 cells; experiment: A7R5 in-cell ELISA (pMLC); assay type: cell-based, Rat; conditions: Rattus norvegicus, A7R5, A7R5 cells, 1 μM compound; read-out: pMLC % inh A7R5 @ [conc]
Method in brief: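 A7R5 rat aortic smooth muscle cells seeded 24 h, then treated 90 min with a 9-point 2-fold compound dilution series. Fixed cells probed for ppMlc (T18/S19) by colorimetric in-cell ELISA; cellular IC50 from nonlinear regression curve fit.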

SMILES	inhibition at 1 µM
COc1cnc(N2CCNCC(C)C2)nc1Nc1ccc2[nH]ncc2c1 (stereo not drawn) [Example 56, N-(5-methoxy-2-(6-methyl-1,4-diazepan-1-yl)pyrimidin-4-yl)-1H-indazol-5-amine]	29%
c1cc(Nc2ccc3[nH]ncc3c2)nc(N2CCNC3(CC3)C2)n1 [Example 66, N-(2-(4,7-diazaspiro[2.5]octan-7-yl)pyrimidin-4-yl)-1H-indazol-5-amine]	17.5%
c1cc(Nc2ccc3[nH]ncc3c2)nc(N2CC3CCC2CN3)n1 (stereo not drawn) [Example 67, N-(2-(2,5-diazabicyclo[2.2.2]octan-2-yl)pyrimidin-4-yl)-1H-indazol-5-amine]	31.4%
CC1CN(c2nccc(Nc3ccc4[nH]ncc4c3)n2)C(C)CN1 (stereo not drawn) [Example 68, N-(2-(2,5-dimethylpiperazin-1-yl)pyrimidin-4-yl)-1H-indazol-5-amine]	35.4%
c1cc(Nc2ccc3[nH]ncc3c2)nc(N2CC3CNC(C3)C2)n1 (stereo not drawn) [Example 78, N-(2-(3,6-diazabicyclo[3.2.1]octan-3-yl)pyrimidin-4-yl)-1H-indazol-5-amine]	20.3%
c1cc(Nc2ccc3[nH]ncc3c2)nc(N2CCN3CCNCC3C2)n1 (stereo not drawn) [Example 84, N-(2-(octahydro-2H-pyrazino[1,2-a]pyrazin-2-yl)pyrimidin-4-yl)-1H-indazol-5-amine]	0.7%
c1cc(Nc2ccc3[nH]ncc3c2)nc(N2CCC3CNCC3CC2)n1 (stereo not drawn) [Example 85, N-(2-(octahydropyrrolo[3,4-d]azepin-6(1H)-yl)pyrimidin-4-yl)-1H-indazol-5-amine]	17.3%
c1ccc2c(c1)N(c1nccc(Nc3ccc4[nH]ncc4c3)n1)CC21CCNCC1 [Example 87, N-(2-(spiro[indoline-3,4′-piperidin]-1-yl)pyrimidin-4-yl)-1H-indazol-5-amine]	5.8%
c1ccc2c(c1)C(C1CCNCC1)CN2c1nccc(Nc2ccc3[nH]ncc3c2)n1 (stereo not drawn) [Example 88, N-(2-(3-(piperidin-4-yl)indolin-1-yl)pyrimidin-4-yl)-1H-indazol-5-amine]	5.6%

same assay, conditions: Rattus norvegicus, A7R5, A7R5 cells, 10 μM compound; read-out: pMLC % inh A7R5 @ [conc]

SMILES	inhibition at 10 µM
c1cc(Nc2ccc(-c3cnn[nH]3)cc2)nc(N2CCNCC2)n1 [Example 41, N-(4-(1H-1,2,3-triazol-5-yl)phenyl)-2-(piperazin-1-yl)pyrimidin-4-amine]	9.96%
COc1cnc(N2CCNC(C(C)C)CC2)nc1Nc1ccc2[nH]ncc2c1 (stereo not drawn) [Example 47, N-(2-(5-isopropyl-1,4-diazepan-1-yl)-5-methoxypyrimidin-4-yl)-1H-indazol-5-amine]	45.6%
CCC1CN(c2ncc(OC)c(Nc3ccc4[nH]ncc4c3)n2)CCN1 (stereo not drawn) [Example 49, N-(2-(3-ethylpiperazin-1-yl)-5-methoxypyrimidin-4-yl)-1H-indazol-5-amine]	46.3%
COc1cnc(N2CCNC(C(C)C)C2)nc1Nc1ccc2[nH]ncc2c1 (stereo not drawn) [Example 51, N-(2-(3-isopropylpiperazin-1-yl)-5-methoxypyrimidin-4-yl)-1H-indazol-5-amine]	39.4%
COc1cnc(N2CCNC(C)CC2)nc1Nc1ccc2[nH]ncc2c1 (stereo not drawn) [Example 53, N-(5-methoxy-2-(5-methyl-1,4-diazepan-1-yl)pyrimidin-4-yl)-1H-indazol-5-amine]	51.3%
CCC1CCN(c2ncc(OC)c(Nc3ccc4[nH]ncc4c3)n2)CCN1 (stereo not drawn) [Example 54, N-(2-(5-ethyl-1,4-diazepan-1-yl)-5-methoxypyrimidin-4-yl)-1H-indazol-5-amine]	50.1%
COc1cnc(N2CCCNC(C)C2)nc1Nc1ccc2[nH]ncc2c1 (stereo not drawn) [Example 55, N-(5-methoxy-2-(3-methyl-1,4-diazepan-1-yl)pyrimidin-4-yl)-1H-indazol-5-amine]	52.2%

same assay, conditions: Rattus norvegicus, A7R5, A7R5 cells, ppMlc (T18/S19)

SMILES	IC50
COc1cnc(N2CCNC(C)CC2)nc1Nc1ccc2[nH]ncc2c1 (stereo not drawn) [Example 53, N-(5-methoxy-2-(5-methyl-1,4-diazepan-1-yl)pyrimidin-4-yl)-1H-indazol-5-amine]	1720 nM
CCC1CCN(c2ncc(OC)c(Nc3ccc4[nH]ncc4c3)n2)CCN1 (stereo not drawn) [Example 54, N-(2-(5-ethyl-1,4-diazepan-1-yl)-5-methoxypyrimidin-4-yl)-1H-indazol-5-amine]	1700 nM
COc1cnc(N2CCCNC(C)C2)nc1Nc1ccc2[nH]ncc2c1 (stereo not drawn) [Example 55, N-(5-methoxy-2-(3-methyl-1,4-diazepan-1-yl)pyrimidin-4-yl)-1H-indazol-5-amine]	998 nM
c1cc(Nc2ccc3[nH]ncc3c2)nc(N2CC3CCC2CN3)n1 (stereo not drawn) [Example 67, N-(2-(2,5-diazabicyclo[2.2.2]octan-2-yl)pyrimidin-4-yl)-1H-indazol-5-amine]	1360 nM
CC1CN(c2nccc(Nc3ccc4[nH]ncc4c3)n2)C(C)CN1 (stereo not drawn) [Example 68, N-(2-(2,5-dimethylpiperazin-1-yl)pyrimidin-4-yl)-1H-indazol-5-amine]	1010 nM
